Data reported in US20240190872A1, “FABI INHIBITORS FOR GRAM-NEGATIVE PATHOGENS” (THE BOARD OF TRUSTEES OF THE UNIVERSITY OF ILLINOIS, priority 2021, published 2024).
Values after ≈ are worked out from the molar mass of the structure shown. Read-outs that look alike come from different tables or passages of the source.

How the values were obtained:
E. coli ΔtolC (JW5503) = format: cell-based; settings: efflux deficient E. coli ΔtolC
Outline: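 MICs by CLSI broth microdilution in cation-adjusted Mueller-Hinton broth, performed in biological triplicate. Strains: efflux-deficient E. coli ΔtolC (JW5503, KEIO collection) and K. pneumoniae BAA-2472 (ATCC).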

[1] = tested on: E. coli MG1655 FabI mutant; assay: MIC against fabimycin-resistant E. coli MG1655 colonies (FabI mutants); format: cell-based; settings: Escherichia coli
Method: Selection of resistant mutants. Resistant mutants were selected via the large inoculum method. Briefly, E. coli MG1655 (1.8×10^9 CFU) were plated on 100 mm plates of LB agar containing 64, 32, and 16 μg/mL Debio-1452-NH3. […] Resistant colonies were confirmed by streaking on selective media with the same concentration of Debio-1452-NH3.

H. sapiens A549 = assay: In-vitro cytotoxicity; format: cell-based
Plasma stability = format: in vitro ADME
in vitro = settings: mouse, plasma, Plasma stability, t1/2, Mouse
CYP 1A2 = CYP 1A2 (Homo sapiens (Human), UniProt P05177); assay: CYP inhibition
[2] = Pharmacokinetic study in neutropenic infected mice

Sequence of CYP 1A2 (P05177 whole entry): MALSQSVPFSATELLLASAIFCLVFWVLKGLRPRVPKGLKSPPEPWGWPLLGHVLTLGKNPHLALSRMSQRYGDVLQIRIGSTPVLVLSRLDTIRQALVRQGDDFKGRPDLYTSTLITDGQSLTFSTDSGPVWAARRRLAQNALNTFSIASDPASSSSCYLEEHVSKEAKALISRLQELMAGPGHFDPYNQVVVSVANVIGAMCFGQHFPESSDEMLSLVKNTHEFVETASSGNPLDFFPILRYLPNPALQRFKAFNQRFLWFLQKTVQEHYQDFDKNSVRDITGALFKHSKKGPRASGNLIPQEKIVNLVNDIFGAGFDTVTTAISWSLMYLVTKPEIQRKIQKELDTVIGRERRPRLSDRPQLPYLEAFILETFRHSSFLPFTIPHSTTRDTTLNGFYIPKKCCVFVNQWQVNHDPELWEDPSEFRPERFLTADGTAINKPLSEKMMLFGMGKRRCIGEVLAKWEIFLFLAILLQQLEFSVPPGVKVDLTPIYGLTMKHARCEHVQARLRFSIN

Which “MIC E. coli ΔtolC” value (E. coli ΔtolC (JW5503)) does the source give for `Cc1c(CN(C)C(=O)/C=C/c2cnc3c(c2)CC[C@H](N)C(=O)N3)oc2ccccc12` [(S)-11, (S,E)-3-(7-amino-8-oxo-6,7,8,9-tetrahydro-5H-pyrido[2,3-b]azepin-3-yl)-N-methyl-N-((3-methylbenzofuran-2-yl)methyl)acrylamide] here?
Its value is 0.016 µg/mL (≈ 0.0396 µM).

And the MIC ([1]; MG1655, read-out: MIC, FabI mutant G148A)?
Its MIC is 64 to 128 µg/mL (≈ 158 to 316 µM).

And the MIC ([1]; MG1655, read-out: MIC, FabI mutant H209P)?
Its MIC is 61 to 128 µg/mL (≈ 151 to 316 µM).

And the inhibition at 30 µM (H. sapiens A549)?
Its inhibition at 30 µM is -1.2 ± 3.5%.

What about the IC50 (H. sapiens A549; cytotoxicity) of the same compound?
Its IC50 is 114 ± 3 µM.

What about the “stability in rat plasma (in words)” value (Plasma stability) of the same compound?
Its value is “excellent stability”.

What about the “Plasma stability, t1/2, Mouse” value of the same compound?
Its value is 1.38 h.

What about the half-life (in vitro) of the same compound?
Its half-life is 1.38 h.

And the IC50 (CYP 1A2)?
The IC50 was 31 µM.

And the AUClast ([2]; PLASMA, 75 mg/kg IV)?
Its AUClast is 45400 ng·h/mL.

And the CL ([2]; PLASMA, 75 mg/kg IV)?
The CL was 26.9 mL/min/kg.

What about the Cmax ([2]; PLASMA, 75 mg/kg IV) of the same compound?
The Cmax was 34600 ng/mL.

What about the AUClast ([2]; PLASMA, 100 mg/kg IV) of the same compound?
The AUClast was 69800 ng·h/mL.

What about the CL ([2]; PLASMA, 100 mg/kg IV) of the same compound?
Its CL is 23.5 mL/min/kg.

And the Cmax ([2]; PLASMA, 100 mg/kg IV)?
The Cmax was 47300 ng/mL.

What about the AUClast ([2]; THIGH, 75 mg/kg IV) of the same compound?
The AUClast was 65200 ng·h/mL.

And the CL ([2]; THIGH, 75 mg/kg IV)?
The CL was 18.9 mL/min/kg.

And the Cmax ([2]; THIGH, 75 mg/kg IV)?
Its Cmax is 33.0 µg/g.

What about the AUClast ([2]; THIGH, 100 mg/kg IV) of the same compound?
The AUClast was 112000 ng·h/mL.

What about the CL ([2]; THIGH, 100 mg/kg IV) of the same compound?
The CL was 14.7 mL/min/kg.

What about the Cmax ([2]; THIGH, 100 mg/kg IV) of the same compound?
The Cmax was 60.2 µg/g.
